{"source": "patent US8809275B2", "about": "“Peptoids and methods for treating alzheimer's disease” (The Board of Trustees of the University of Arkansas, priority 2011, dated 2014)", "target": "T1, Aβ fibrils (Homo sapiens, UniProt P05067)", "T1 construct": "aliquots of Aβ(1-40) monomer, purified via size exclusion chromatography on Superdex 75", "T1 sequence (P05067 672-711)": "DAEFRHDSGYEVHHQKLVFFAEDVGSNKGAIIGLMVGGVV", "assay": "Dot blot assay with LOC antibody binding to Aβ fibrils", "type": "biochemical", "method": "The results of the ThT assay were confirmed using a dot blot assay with antibodies capable of binding to Aβ fibrils, but not Aβ monomers or pre-fibrils (LOC, available from Millipore). Thus, reduction of signal in the dot blot as compared to control is indicative of the peptoid blocking fibril formation. The intensity of the dot blot signal detecting the binding of the LOC antibody to the Aβ fibrils after incubation with a control was set to 100% to indicate maximal fibril formation. This can then be compared to the intensity of the LOC antibody dot blot signal after incubation of the Aβ with each of the peptoids. A reduction in the percent of antibody binding is indicative of inhibition of aggregation of Aβ in the assay. […] To control for the signal being at the maximum intensity parallel samples were diluted in half with 40 mM Tris buffer before being blotted (1:2). After 2 hours of incubation, none of the peptoids were capable of inhibiting aggregation of Aβ at a 1:1 dilution, likely because the antibody signal is too saturated to detect any effect of the peptoids.", "note": "Non-standard residues stand in square brackets, D forms with d. Residues, ends and D or L forms follow the SMILES beside them. N(1S-Me-propyl)Gly = CC[C@H](C)NCC(=O)O; Nspe = C[C@H](NCC(=O)O)c1ccccc1; Nlys = NCCCCNCC(=O)O"}
{"smiles": "CC[C@H](C)N(CC(=O)N(CC(=O)N(CC(=O)N(CC(=O)N(CC(=O)N(CC(=O)N(CC(N)=O)[C@@H](C)c1ccccc1)[C@@H](C)c1ccccc1)[C@@H](C)CC)[C@@H](C)c1ccccc1)[C@@H](C)c1ccccc1)[C@@H](C)CC)C(=O)CNCCCCN", "note": "[Peptoid 2] (H-[Nlys][N(1S-Me-propyl)Gly][N(1S-Me-propyl)Gly][Nspe][Nspe][N(1S-Me-propyl)Gly][Nspe][Nspe]-NH2)", "values": [{"measurement": "LOC antibody dot blot signal, percent of control (control = 100%)", "setting": "Time 0 hr, dilution 1:1", "value": 73.03, "unit": "%"}, {"measurement": "LOC antibody dot blot signal, percent of control (control = 100%)", "setting": "Time 0 hr, dilution 1:2", "value": 56.91, "unit": "%"}, {"measurement": "LOC antibody dot blot signal, percent of control (control = 100%)", "setting": "Time 2 hr, dilution 1:1", "value": 108.61, "unit": "%"}, {"measurement": "LOC antibody dot blot signal, percent of control (control = 100%)", "setting": "Time 2 hr, dilution 1:2", "value": 89.63, "unit": "%"}]}
